Where two headings read alike, the source gives them in different places.
Assays:
[1] = molecular target: T1, Mouse complex II (Mus musculus, UniProt Q9CQA3+Q9CXV1+Q9CZB0); experiment: Cell-free Complex II functional assay, mouse liver mitochondria; type: biochemical, M. musculus
T1 construct: The livers from three 8–10-week-old C57Bl/6 female mice (Charles River) were removed; tissue Charles River (mice); host or cells: crude mitochondria from liver of C57Bl/6 female mice
Protocol: The livers from three 8–10-week-old C57Bl/6 female mice (Charles River) were removed, collected in 1.5 ml microcentrifuge tubes, flash frozen in liquid nitrogen and stored at −80 °C until needed. Just before mitochondria isolation, the livers were weighed, placed into a 10-cm petri dish and 10 ml isolation buffer A was added per gram of liver tissue. The tissue was finely minced with a razor blade, transferred to a glass Dounce homogenizer and homogenized by 10 strokes on ice. The homogenate was centrifuged at 1,000g for 10 min at 4 °C. The supernatant was collected and centrifuged at 1,000g for 10 min at 4 °C. The supernatant was again collected and centrifuged at 16,000g for 10 min at 4 °C. The pellet was resuspended in 20 ml of isolation buffer B and centrifuged at 16,000g for 10 min at 4 °C. The pellet was resuspended in 20 ml of isolation buffer B, and 1 ml aliquots of the resuspension were distributed into 20 × 1.5 ml microcentrifuge tubes. The aliquoted resuspensions were centrifuged at 16,000g for 10 min at 4 °C. The supernatant was aspirated, the pellet was flash frozen in liquid nitrogen and stored frozen at −80 °C until needed. The mice used for experimentation were housed and used in accordance with ‘the use and care of experimental animals' guidelines. […]
Mitochondrial pellets were thawed on ice and resuspended in 300 μl of cold isolation buffer B. Using the BCA assay, the protein concentration of the mitochondria suspension was determined and was subsequently diluted to a concentration of 0.2 mg ml^−1 with cold isolation buffer B. Complex II enzymatic assays were carried out in 96-well flat bottom plates. […] Absorbance for each well was measured at 600 nm using a SpectraMax Plus 384-well Microplate Reader, combined with SoftmaxPro software at 30-s intervals over a 35-min time period. Absorbance versus time was plotted for each well and enzyme activity was calculated as the slope of the line defined by the points ranging from 4 to 10 min. Per cent activity was calculated by dividing the enzyme activity of the chemical-treated wells by that of the DMSO control wells. […]

[2] = test system: C. elegans N2; experiment: 96-well liquid-based dose-response (in vivo LD100), wild-type worms; conditions: lowest concentration with no viable animals in four of four wells, 6 days after 20 L1 worms deposited
Protocol: (§1) The 96-well liquid-based chemical screening assay was adapted from an established RNAi screening protocol. Briefly, saturated HB101 Escherichia coli culture was concentrated 2-fold using NGM (nematode growth media) containing 3 mg ml^−1 NaCl, 2.5 mg ml^−1 peptone, 5 μg ml^−1 cholesterol, 1 mM CaCl2, 1 mM MgSO4 and 25 mM KH2PO4. A total of 40 μl of NGM+HB101 was dispensed into each well of a 96-well plate, and chemicals were pinned into the wells using a pinning tool with a 300 nl slot volume (V&P Scientific). Approximately 20 synchronized first larval-stage (L1) worms, in 10 μl of M9 buffer (see ref. [24] for the recipe), were then added to each well. The synchronized L1s were obtained from an embryo preparation (see ref. [24] for the protocol) performed the previous day. The final concentration of dimethyl sulfoxide (DMSO) in the wells was 0.6% v/v. A dissection microscope was used to visualize the wells either 5 or 6 days post worm deposition and any obvious chemical-induced phenotypes were noted.
(§2) The 96-well liquid-based assay was also used for all follow-up dose-response experiments in this work. These experiments were carried out in quadruplicate, and the total number of worms in each well was counted 6 days after worm deposition.

[3] = molecular target: wild-type C. elegans complex II (Caenorhabditis elegans, UniProt O62215+P41956+Q09508+Q09545); experiment: biochemical; type: biochemical
[4] = test system: wact-11-family resistant C. elegans mutants (RP2674, RP2698 and others); experiment: 96-well liquid-based dose-response (in vivo LD100), wact-11-family resistant mutants; conditions: for Resistance of wact-11-family resistant mutants to compound-induced lethality (in words): liquid dose-response of resistant mutants versus N2; for In vivo LD100: 6 days
Protocol: as §1, §2

[5] = test system: complex II from the parasitic nematode Ascaris suum; set-up: method as in PMID 19724139, PMID 23333273; conditions: cited from earlier work
[6] = molecular target: C. elegans complex II with SDHC-1(R74K) missense mutation (Caenorhabditis elegans, UniProt O62215+P41956+Q09508+Q09545, R74K); experiment: Cell-free Complex II functional assay, mitochondria from wact-11-resistant mutants RP2674 and RP2698; type: biochemical
[7] = test system: three nematode species, zebrafish and HEK cells; experiment: Grouping by phylogenetic bioactivity profile (multi-organism screening pipeline); set-up: key: Group 1 molecules are lethal to only one or two of the three nematode species tested, but are non-lethal to zebrafish and HEK cells.; Group 2 molecules are lethal to all three nematode species, but are non-lethal to zebrafish and human cells.; Group 3 molecule are lethal to fish or HEK cells, regardless of their nematode bioactivity profile; conditions: nematode selectivity and cross-species lethality group
From the text: To further characterize our 275 C. elegans-lethal molecules, we organized them into three separate groups based on their phylogenetic bioactivity profiles (Fig. 2a). Group 1 contains 102 molecules that are lethal to only one or two of the three nematode species tested, but are non-lethal to zebrafish and HEK cells. Group 2 contains 67 compounds that are lethal to all three nematode species, but are non-lethal to zebrafish and human cells. Group 3 contains the remaining 106 compounds that are lethal to fish or HEK cells, and have varied bioactivity in different nematode species. In particular, the 67 molecules in group 2 represent potentially ideal anthelmintic leads; they have activity across multiple nematode species, and appear not to affect vertebrates.

[8] = C. elegans, strain N2, SDHC residue change none, read-out: In vitro Complex II IC50
[9] = read-out: In vitro Complex II IC50, C. elegans, strain RP2674, SDHC R74K
[10] = read-out: In vitro Complex II IC50, C. elegans, strain RP2698, SDHC R74K
[11] = M. musculus, C57Bl/6 liver mitochondria, read-out: In vitro Complex II IC50
[12] = C. elegans strain RP2674 (SDHC R74K)
[13] = C. elegans strain RP2698 (SDHC R74K)

Chain of wild-type C. elegans complex II (O62215 whole entry): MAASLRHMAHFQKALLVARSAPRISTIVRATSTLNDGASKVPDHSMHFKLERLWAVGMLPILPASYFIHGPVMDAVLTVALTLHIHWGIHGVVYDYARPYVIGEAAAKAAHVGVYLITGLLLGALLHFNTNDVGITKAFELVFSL
Chain of wild-type C. elegans complex II (Q09545 whole entry): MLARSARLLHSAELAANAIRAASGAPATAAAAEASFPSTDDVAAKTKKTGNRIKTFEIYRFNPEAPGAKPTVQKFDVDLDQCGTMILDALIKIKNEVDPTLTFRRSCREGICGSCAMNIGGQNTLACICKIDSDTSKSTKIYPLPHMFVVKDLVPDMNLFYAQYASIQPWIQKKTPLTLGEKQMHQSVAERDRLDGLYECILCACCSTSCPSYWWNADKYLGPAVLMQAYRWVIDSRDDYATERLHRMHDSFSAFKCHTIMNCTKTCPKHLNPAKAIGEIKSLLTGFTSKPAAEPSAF
Chain of wild-type C. elegans complex II (Q09508 32-646): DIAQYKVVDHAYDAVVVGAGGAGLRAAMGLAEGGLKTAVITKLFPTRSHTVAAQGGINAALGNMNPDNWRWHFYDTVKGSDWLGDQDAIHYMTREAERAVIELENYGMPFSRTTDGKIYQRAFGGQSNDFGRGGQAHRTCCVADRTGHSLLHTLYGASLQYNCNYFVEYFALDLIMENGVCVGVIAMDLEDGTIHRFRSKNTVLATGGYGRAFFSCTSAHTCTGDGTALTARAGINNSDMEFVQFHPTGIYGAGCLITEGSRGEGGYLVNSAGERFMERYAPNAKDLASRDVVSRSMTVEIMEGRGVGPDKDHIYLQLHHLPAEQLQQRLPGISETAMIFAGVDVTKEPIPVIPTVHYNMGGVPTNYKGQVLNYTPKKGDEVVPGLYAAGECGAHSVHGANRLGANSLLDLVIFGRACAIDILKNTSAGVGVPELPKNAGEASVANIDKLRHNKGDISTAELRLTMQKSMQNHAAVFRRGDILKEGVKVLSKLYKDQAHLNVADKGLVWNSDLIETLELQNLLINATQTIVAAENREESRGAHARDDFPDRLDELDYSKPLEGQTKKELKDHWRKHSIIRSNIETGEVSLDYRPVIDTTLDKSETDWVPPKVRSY
Chain of wild-type C. elegans complex II (P41956 whole entry): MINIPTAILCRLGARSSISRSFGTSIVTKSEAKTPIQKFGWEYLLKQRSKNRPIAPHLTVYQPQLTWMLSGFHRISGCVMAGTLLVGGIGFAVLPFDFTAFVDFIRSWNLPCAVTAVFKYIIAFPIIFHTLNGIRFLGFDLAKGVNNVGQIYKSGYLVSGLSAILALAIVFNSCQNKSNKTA
Chain of C. elegans complex II with SDHC-1(R74K) missense mutation (O62215 whole entry): as the sequence (O62215 whole entry) above
Chain of C. elegans complex II with SDHC-1(R74K) missense mutation (P41956 whole entry R74K): as the sequence (P41956 whole entry) above, with R74K counted along it
Chain of C. elegans complex II with SDHC-1(R74K) missense mutation (Q09508 32-646): as the sequence (Q09508 32-646) above
Chain of C. elegans complex II with SDHC-1(R74K) missense mutation (Q09545 whole entry): as the sequence (Q09545 whole entry) above
T1 sequence (Q9CZB0 30-169): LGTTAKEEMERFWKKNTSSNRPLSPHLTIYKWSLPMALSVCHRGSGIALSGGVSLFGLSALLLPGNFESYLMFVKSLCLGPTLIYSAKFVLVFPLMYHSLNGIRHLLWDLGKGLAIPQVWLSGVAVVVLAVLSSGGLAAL
T1 sequence (Q9CQA3 31-282): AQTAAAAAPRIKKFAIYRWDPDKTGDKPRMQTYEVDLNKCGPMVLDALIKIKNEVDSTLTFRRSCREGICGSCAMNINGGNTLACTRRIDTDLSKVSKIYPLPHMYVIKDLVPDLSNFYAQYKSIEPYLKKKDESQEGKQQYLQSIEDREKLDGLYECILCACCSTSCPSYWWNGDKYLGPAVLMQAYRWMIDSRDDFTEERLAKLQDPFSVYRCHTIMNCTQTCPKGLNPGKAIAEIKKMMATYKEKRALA
T1 sequence (Q9CXV1 57-159): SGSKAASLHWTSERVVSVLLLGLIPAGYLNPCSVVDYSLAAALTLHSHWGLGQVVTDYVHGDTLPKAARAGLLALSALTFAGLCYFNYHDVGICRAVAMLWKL
T1 sequence (Q8K2B3 43-664 partner): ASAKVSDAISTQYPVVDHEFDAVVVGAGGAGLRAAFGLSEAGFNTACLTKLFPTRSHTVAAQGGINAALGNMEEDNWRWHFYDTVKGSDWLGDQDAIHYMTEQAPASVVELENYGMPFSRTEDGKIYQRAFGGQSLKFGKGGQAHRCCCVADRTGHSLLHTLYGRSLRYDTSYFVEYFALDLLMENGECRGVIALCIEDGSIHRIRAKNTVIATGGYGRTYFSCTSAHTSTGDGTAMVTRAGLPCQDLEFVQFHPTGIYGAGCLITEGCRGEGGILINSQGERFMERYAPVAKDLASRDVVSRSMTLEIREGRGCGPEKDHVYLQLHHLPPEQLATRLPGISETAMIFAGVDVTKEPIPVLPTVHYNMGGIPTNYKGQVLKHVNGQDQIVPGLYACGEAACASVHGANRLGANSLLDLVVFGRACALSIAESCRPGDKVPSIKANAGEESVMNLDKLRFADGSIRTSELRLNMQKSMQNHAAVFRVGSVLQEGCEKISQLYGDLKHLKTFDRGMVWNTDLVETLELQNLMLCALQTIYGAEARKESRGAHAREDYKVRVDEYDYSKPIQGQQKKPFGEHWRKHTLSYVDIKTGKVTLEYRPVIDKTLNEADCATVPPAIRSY

Structure (SMILES): COc1[nH]c(=O)c(C(=O)[C@@H](C)C[C@H](C)[C@@H](Cl)CCl)c(O)c1OC [Atpenin A5]
- IC50 [1]: 0.593 µM
- In vivo LD100 [2]: >120 µM

Structure (SMILES): O=C(Nc1ccccc1)c1ccccc1I [Benodanil]
- IC50 [3]: 0.186 µM
- In vivo LD100 [2]: 120 µM
- Resistance of wact-11-family resistant mutants to compound-induced lethality (in words) [4]: resist the lethality

Structure (SMILES): O=C(Nc1ccccc1-c1ccc(Cl)cc1)c1cccnc1Cl [Boscalid]
- IC50 [3]: 0.549 µM
- In vivo LD100 [2]: >120 µM

Structure (SMILES): CC1=C(C(=O)Nc2ccccc2)SCCO1 [Carboxine]
- IC50 [3]: > 10 µM
- In vivo LD100 [2]: >120 µM

Structure (SMILES): CC1=NS(=O)(=O)c2cc(Cl)ccc2N1 [Diazoxide]
- IC50 [3]: > 10 µM
- In vivo LD100 [2]: >120 µM

Structure (SMILES): Cc1occc1C(=O)Nc1ccccc1 [Fenfuran]
- IC50 [3]: 5.28 µM
- In vivo LD100 [2]: >120 µM

Structure (SMILES): O=C(NCCc1ncc(C(F)(F)F)cc1Cl)c1ccccc1C(F)(F)F [Fluopyram]
- IC50 [3]: 0.0018 µM
- Less inhibiting than wact-11 f and wact-11 m ([3]; C. elegans N2 complex II IC50): ~2 fold
- In vivo LD100 [2]: 0.469 µM
- Resistance of wact-11-family resistant mutants to compound-induced lethality (in words) [4]: resist the lethality

Structure (SMILES): CC(C)Oc1cccc(NC(=O)c2ccccc2C(F)(F)F)c1 [Flutolanil]
- IC50 [3]: 0.311 µM
- In vivo LD100 [2]: >120 µM
- Inhibition of Ascaris suum complex II in vitro (in words) [5]: inhibit

Structure (SMILES): C/C=C/CC(C)C(=O)c1c(O)c(OC)c(OC)[nH]c1=O (stereo not shown) [Harz, harzianopyridone]
- IC50 [3, 8]: > 10 µM
- In vivo LD100 [2]: >120 µM

Structure (SMILES): O=C([O-])CC(=O)[O-].[Na+].[Na+] [Malonate, disodium malonate]
- IC50 [3, 8]: 4900 µM
- IC50 ([6]; C. elegans, strain RP2674, SDHC R74K, read-out: In vitro Complex II IC50): 4200 µM
- IC50 ([6]; C. elegans, strain RP2698, SDHC R74K, read-out: In vitro Complex II IC50): 4200 µM
- In vivo LD100 [2]: >120 µM

Structure (SMILES): O=C(CC(=O)C(F)(F)F)c1cccs1 [TTFA, thenoyltrifluoroacetone]
- IC50 [3, 8]: > 10 µM
- In vivo LD100 [2]: >120 µM

Structure (SMILES): Cc1nc(C(F)(F)F)c(C(=O)Nc2c(Br)cc(OC(F)(F)F)cc2Br)s1 [Thifluzamide]
- IC50 [3]: 3.82 µM
- In vivo LD100 [2]: >120 µM

Structure (SMILES): O=C(NCCc1ccc(Cl)cc1)c1ccccc1C(F)(F)F [wact-11]
- IC50 [3]: 0.0074 µM
- IC50 [6]: > 10 µM
- IC50 [6, 9]: > 10 µM
- IC50 [6, 10]: > 10 µM
- IC50 [1, 11]: > 10 µM
- In vivo LD100 [2]: 7.5 µM
- In vivo LD100 [4, 12]: >120 µM
- In vivo LD100 [4, 13]: >120 µM
- Resistance of wact-11-family resistant mutants to compound-induced lethality (in words) [4]: at least some resistance
- Group # (Bioactivity Group #) [7]: 2

Structure (SMILES): CCc1ccc(OCCNC(=O)c2ccccc2I)cc1 [wact-12]
- IC50 [3]: 0.0057 µM
- IC50 [6]: > 10 µM
- IC50 [6, 9]: > 10 µM
- IC50 [6, 10]: > 10 µM
- IC50 [1, 11]: > 10 µM
- In vivo LD100 [2]: 7.5 µM
- In vivo LD100 [4, 12]: >120 µM
- In vivo LD100 [4, 13]: >120 µM
- Group # (Bioactivity Group #) [7]: 2

Structure (SMILES): Cc1ccc(SCCNC(=O)c2ccccc2I)cc1 [wact-12c]
- IC50 [3, 8]: 0.133 µM
- In vivo LD100 [2]: >120 µM

Structure (SMILES): CCCCCNC(=O)c1ccccc1SC [wact-127]
- Group # (Bioactivity Group #) [7]: 2

Source: PMC4491176, “Caenorhabditis elegans is a useful model for anthelmintic discovery” (Nature Communications, 2015)
